# Measurements as given in patent publication US10301292B2, “Bicyclic compound” (Takeda Pharmaceutical Company Limited, priority 2014, dated 2019).
# Assays:
# [1] = system: human renal cancer cell line 786-O; assay: Antitumor action on human renal cancer cell line 786-O tumor bearing mouse; type: in vivo; settings: oral, 28 days, 786-O tumor bearing BALB/c nude mouse
# Description: The antitumor action of the compound of the present invention on human renal cancer cell line 786-O tumor bearing mouse was evaluated by the following method.
# Human renal cancer cell line 786-O (purchased from ATCC (American Type Culture Collection)) was transplanted to 6-week-old BALB/c female nude mouse (Shanghai SINO-British SIPPR/BK Lab Animal Ltd) at 3.0×10^6 cells by subcutaneous injection. After transplantation, the engrafted tumor was observed, the tumor diameter was measured on day 10 post-transplantation, and the tumor volume was calculated by the following formula. tumor volume=major axis×minor axis×minor axis×(1/2)
# The mice having engrafted tumor with a volume size up to 150 mm^3 were selected and used for the experiment (8 per group). The test compound was suspended in 0.5% methylcellulose solution, and orally administered for 28 days at the dose and number of administration shown in the following Table. Finally, for the measurement of the drug effect, the tumor volume was calculated from the tumor diameter of the day before the start of the administration and the final day of the administration, and the tumor growth of the test compound administration group compared to that of the control administration group (T/C) was calculated by the following formula. T/C (%)=(tumor volume after completion of administration in test compound administration group−tumor volume before start of administration in test compound administration group)/(tumor volume after completion of administration in control administration group−tumor volume before start of administration in control administration group))×100
# T/C (%) relative to human renal cancer cell line 786-O tumor bearing mouse at each dose and number of administration of the test compound (specifically, compound shown in Example 98) is shown below.
# [2] = system: collagen I gene expression in the liver; assay: Effect on liver fibrosis caused by non-alcoholic steatohepatitis (liver collagen I gene expression); type: in vivo; settings: LDL receptor deficient mouse, choline-deficient amino acid diet; oral once per day for 3 weeks; normalized by GAPDH; P<0.05 vs. control (FIG. 1)
# Source text: The effect of the present compound on liver fibrosis caused by non-alcoholic steatohepatitis was verified by the following method.
# For efficacy evaluation of the antifibrotic action, 9-week-old, male, homo low-density lipoprotein receptor deficient mouse was used. The low-density lipoprotein receptor deficient mouse was purchased from Jackson Laboratories (Bar Harbor, Me., USA) and bred in Takeda Pharmaceutical Industry. To induce non-alcoholic steatohepatitis, a choline-deficient amino acid diet (A08111307, Research Diets, New Brunswick, N.J., USA) was fed.
# Before administration of the test compound (specifically, compound shown in Example 98), a choline-deficient amino acid diet was fed for one week, and the drug administration was started. […]
# After administration for 3 weeks, the mouse was sacrificed by euthanasia under isoflurane anesthesia under non-fasting and the liver was removed. […] Using RNeasy Mini Kit (Qiagen, Valencia, Calif., USA), the total RNA was purified, cDNA was prepared using High Capacity cDNA Reverse Transcription Kit (PN4368814, Applied Biosystems, Foster City, Calif., USA), and collagen I expression was quantified (collagen type I alpha 1, Part Number 4351370, Applied Biosystems) by the quantitative PCR method (TaqMan Gene Expression Master Mix, PN4369016, Applied Biosystems). […]
smiles,measurement,setting,value
"CC(NC(N)=O)c1ccc2nc(-c3ccc(Oc4cccc(OCC5CC5)c4)nc3)oc2c1 (stereo not shown) [Example 98, 1-(1-(2-(6-(3-(cyclopropylmethoxy)phenoxy)pyridin-3-yl)-1,3-benzoxazol-6-yl)ethyl)urea]",T/C (%),"[1]; 0.3 mg/kg, 2 times per day",50.6%
same,T/C (%),"[1]; 1 mg/kg, 2 times per day",37.0%
same,T/C (%),"[1]; 3 mg/kg, 2 times per day",31.1%
same,T/C (%),"[1]; 10 mg/kg, 2 times per day",4.5%
same,T/C (%),"[1]; 20 mg/kg, 1 time per day",19.0%
same,T/C (%),"[1]; 30 mg/kg, 2 times per day",0.5%
same,expression level of collagen I gene in the liver of a non-alcoholic steatohepatitis model,[2],significantly suppressed
